According to US12157810B1 (priority 2020, dated 2024):

Test system: cell culture

With “poly(alloocimene-b-isobutylene-b-alloocimene) [AIBA]” the “cytotoxicity in cell culture studies” value was “non-cytotoxicity”.
